In PubChem BioAssay (NCI):
Where “and” joins values, the source holds several entries; their conditions need not be identical. Equal values may be shown once.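 Assay format: 96-well plates, 48-hour exposure. GI50 is the concentration that inhibits growth by half. TGI: total growth inhibition.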

Assays:
Assay in all cases: NCI-60 cell line screen, 48 h
NCI/ADR-RES ovarian = test system: NCI/ADR-RES ovarian
IGROV1 ovarian = test system: IGROV1 ovarian
OVCAR-3 ovarian = test system: OVCAR-3 ovarian
HT29 colon = test system: HT29 colon
MDA-MB-435 = test system: MDA-MB-435
SR leukemia = test system: SR leukemia
UO-31 renal = test system: UO-31 renal
SF-539 CNS = test system: SF-539 CNS
SNB-75 CNS = test system: SNB-75 CNS
ACHN renal = test system: ACHN renal
T-47D breast = test system: T-47D breast
786-0 renal = test system: 786-0 renal
UACC-62 melanoma = test system: UACC-62 melanoma
HOP-92 NSCLC = test system: HOP-92 NSCLC
LOX IMVI melanoma = test system: LOX IMVI melanoma
OVCAR-8 ovarian = test system: OVCAR-8 ovarian
K-562 leukemia = test system: K-562 leukemia
HOP-62 NSCLC = test system: HOP-62 NSCLC
NCI-H23 lung = test system: NCI-H23 lung
EKVX NSCLC = test system: EKVX NSCLC
RXF 393 renal = test system: RXF 393 renal
HCT-116 colon = test system: HCT-116 colon
KM12 colon = test system: KM12 colon
HS 578T breast = test system: HS 578T breast
SK-MEL-28 melanoma = test system: SK-MEL-28 melanoma
SK-MEL-2 melanoma = test system: SK-MEL-2 melanoma
NCI-H226 lung = test system: NCI-H226 lung
MALME-3M melanoma = test system: MALME-3M melanoma
MCF7 breast = test system: MCF7 breast
NCI-H460 lung = test system: NCI-H460 lung
COLO 205 colon = test system: COLO 205 colon
RPMI-8226 leukemia = test system: RPMI-8226 leukemia
BT-549 breast = test system: BT-549 breast
SF-295 CNS = test system: SF-295 CNS
CAKI-1 renal = test system: CAKI-1 renal
HL-60(TB) leukemia = test system: HL-60(TB) leukemia
SN12C renal = test system: SN12C renal
OVCAR-5 ovarian = test system: OVCAR-5 ovarian
OVCAR-4 ovarian = test system: OVCAR-4 ovarian
U251 CNS = test system: U251 CNS
M14 melanoma = test system: M14 melanoma
SNB-19 CNS = test system: SNB-19 CNS
MOLT-4 leukemia = test system: MOLT-4 leukemia
A498 renal = test system: A498 renal
MDA-MB-231 breast = test system: MDA-MB-231 breast
DU-145 prostate = test system: DU-145 prostate
SW-620 colon = test system: SW-620 colon
HCT-15 colon = test system: HCT-15 colon
UACC-257 melanoma = test system: UACC-257 melanoma
NCI-H522 lung = test system: NCI-H522 lung
CCRF-CEM leukemia = test system: CCRF-CEM leukemia
A549 NSCLC = test system: A549 NSCLC
SF-268 CNS = test system: SF-268 CNS
SK-OV-3 ovarian = test system: SK-OV-3 ovarian

SMILES: Nc1ccn([C@@H]2O[C@H](COP(=O)(O)O[C@@H]3C[C@H](n4cc(F)c(=O)[nH]c4=O)O[C@@H]3COP(=O)(O)O[C@@H]3C[C@H](n4cc(F)c(=O)[nH]c4=O)O[C@@H]3COP(=O)(O)O[C@@H]3C[C@H](n4cc(F)c(=O)[nH]c4=O)O[C@@H]3COP(=O)(O)O[C@@H]3C[C@H](n4cc(F)c(=O)[nH]c4=O)O[C@@H]3COP(=O)(O)O[C@@H]3C[C@H](n4cc(F)c(=O)[nH]c4=O)O[C@@H]3COP(=O)(O)O[C@@H]3C[C@H](n4cc(F)c(=O)[nH]c4=O)O[C@@H]3COP(=O)(O)O[C@@H]3C[C@H](n4cc(F)c(=O)[nH]c4=O)O[C@@H]3COP(=O)(O)O[C@@H]3C[C@H](n4cc(F)c(=O)[nH]c4=O)O[C@@H]3COP(=O)(O)O[C@@H]3C[C@H](n4cc(F)c(=O)[nH]c4=O)O[C@@H]3COP(=O)(O)O[C@@H]3C[C@H](n4cc(F)c(=O)[nH]c4=O)O[C@@H]3COP(=O)(O)OCCOCCOCCOCCOCCOCCO)[C@H](O)C2O)c(=O)n1 (stereo not given in full)
- GI50 (NCI/ADR-RES ovarian): 14.6 nM and 12.1 nM
- TGI (NCI/ADR-RES ovarian): 21.1 µM and > 100 µM
- GI50 (IGROV1 ovarian): 1630 nM and 1450 nM
- TGI (IGROV1 ovarian): 21.1 µM and > 100 µM
- GI50 (OVCAR-3 ovarian): > 100 µM
- TGI (OVCAR-3 ovarian): > 100 µM
- GI50 (HT29 colon): 17.1 nM
- TGI (HT29 colon): 21.1 µM and > 100 µM
- GI50 (MDA-MB-435): 1280 nM and 233 nM
- TGI (MDA-MB-435): 21.1 µM and > 100 µM
- GI50 (SR leukemia): 621 nM
- TGI (SR leukemia): 21.1 µM and > 100 µM
- GI50 (UO-31 renal): 6.59 nM
- TGI (UO-31 renal): 6.57 µM and 7.3 µM
- GI50 (SF-539 CNS): 5.65 nM
- TGI (SF-539 CNS): 21.1 µM and > 100 µM
- GI50 (SNB-75 CNS): 4.33 µM and 10.3 µM
- TGI (SNB-75 CNS): 21.1 µM and > 100 µM
- GI50 (ACHN renal): 7.45 nM
- TGI (ACHN renal): 21.1 µM and > 100 µM
- TGI (T-47D breast): 21.1 µM and > 100 µM
- GI50 (786-0 renal): 7.77 nM and 13.1 nM
- TGI (786-0 renal): 21.1 µM and > 100 µM
- GI50 (UACC-62 melanoma): 5.57 nM and 27.9 nM
- GI50 (HOP-92 NSCLC): 3.86 µM and 14.1 µM
- TGI (HOP-92 NSCLC): 21.1 µM and > 100 µM
- GI50 (LOX IMVI melanoma): 5.4 nM
- TGI (LOX IMVI melanoma): 21.1 µM and > 100 µM
- GI50 (OVCAR-8 ovarian): 13.2 nM
- TGI (OVCAR-8 ovarian): 21.1 µM and > 100 µM
- GI50 (K-562 leukemia): 489 nM and 85.8 nM
- TGI (K-562 leukemia): 21.1 µM and > 100 µM
- GI50 (HOP-62 NSCLC): 8.41 nM
- TGI (HOP-62 NSCLC): 21.1 µM and > 100 µM
- GI50 (NCI-H23 lung): 25.5 nM and 44.5 nM
- TGI (NCI-H23 lung): 21.1 µM and > 100 µM
- TGI (EKVX NSCLC): > 100 µM
- GI50 (RXF 393 renal): 846 nM and 684 nM
- TGI (RXF 393 renal): 21.1 µM and 70.4 µM
- GI50 (HCT-116 colon): 13 nM
- TGI (HCT-116 colon): 21.1 µM and > 100 µM
- GI50 (KM12 colon): 178 nM
- TGI (KM12 colon): 21.1 µM
- GI50 (HS 578T breast): > 100 µM
- TGI (HS 578T breast): > 100 µM
- TGI (SK-MEL-28 melanoma): 21.1 µM and > 100 µM
- TGI (SK-MEL-2 melanoma): > 100 µM
- GI50 (NCI-H226 lung): 9.21 µM and 24.6 µM
- TGI (NCI-H226 lung): 21.1 µM and > 100 µM
- GI50 (MALME-3M melanoma): 2.37 µM and 11.8 µM
- TGI (MALME-3M melanoma): 21.1 µM and > 100 µM
- GI50 (MCF7 breast): 2.11 nM
- TGI (MCF7 breast): 21.1 µM and > 100 µM
- GI50 (NCI-H460 lung): 2.11 nM
- TGI (NCI-H460 lung): 21.1 µM and > 100 µM
- GI50 (COLO 205 colon): 9.73 nM
- TGI (COLO 205 colon): 21.1 µM and > 100 µM
- GI50 (RPMI-8226 leukemia): 332 nM and 1710 nM
- TGI (RPMI-8226 leukemia): 21.1 µM and > 100 µM
- GI50 (BT-549 breast): 674 nM and 568 nM
- TGI (BT-549 breast): 21.1 µM and > 100 µM
- GI50 (SF-295 CNS): 3.28 nM
- TGI (SF-295 CNS): 21.1 µM and > 100 µM
- GI50 (CAKI-1 renal): 8.32 nM
- TGI (CAKI-1 renal): 21.1 µM and > 100 µM
- TGI (HL-60(TB) leukemia): 21.1 µM and > 100 µM
- GI50 (SN12C renal): 12.4 nM
- TGI (SN12C renal): 21.1 µM
- GI50 (OVCAR-5 ovarian): > 100 µM
- TGI (OVCAR-5 ovarian): > 100 µM
- GI50 (OVCAR-4 ovarian): > 21.1 µM and 89.5 µM
- TGI (OVCAR-4 ovarian): > 100 µM
- GI50 (U251 CNS): 10.1 nM
- TGI (U251 CNS): 21.1 µM and > 100 µM
- GI50 (M14 melanoma): 9.11 nM and 12.6 nM
- TGI (M14 melanoma): 2.56 µM and 4.9 µM
- GI50 (SNB-19 CNS): 72.1 nM and 21.9 nM
- TGI (SNB-19 CNS): 21.1 µM and > 100 µM
- GI50 (MOLT-4 leukemia): 24.6 nM and 44.3 nM
- TGI (MOLT-4 leukemia): 21.1 µM and > 100 µM
- GI50 (A498 renal): 20.4 nM and 63.1 nM
- TGI (A498 renal): 21.1 µM and > 100 µM
- TGI (MDA-MB-231 breast): 21.1 µM and > 100 µM
- GI50 (DU-145 prostate): 18.5 nM and 25.4 nM
- TGI (DU-145 prostate): 21.1 µM and > 100 µM
- GI50 (SW-620 colon): 4.23 µM and 2.6 µM
- TGI (SW-620 colon): 21.1 µM and > 100 µM
- GI50 (HCT-15 colon): 697 nM and 179 nM
- TGI (HCT-15 colon): 21.1 µM and > 100 µM
- GI50 (UACC-257 melanoma): 110 nM and 62 nM
- TGI (UACC-257 melanoma): 21.1 µM and > 100 µM
- TGI (NCI-H522 lung): 21.1 µM and > 100 µM
- GI50 (CCRF-CEM leukemia): 10.1 nM and 17.5 nM
- TGI (CCRF-CEM leukemia): 21.1 µM and > 100 µM
- GI50 (A549 NSCLC): 2.84 nM
- TGI (A549 NSCLC): 21.1 µM and > 100 µM
- GI50 (SF-268 CNS): 5.14 nM
- TGI (SF-268 CNS): 21.1 µM and > 100 µM
- GI50 (SK-OV-3 ovarian): 11 nM and 18.5 nM
- TGI (SK-OV-3 ovarian): 21.1 µM and > 100 µM
